Consider eleven compounds from patent US4772616A, “Treatment of ocular hypertension and glaucoma with dopamine antagonists” (priority 1987, dated 1988).

“Also recorded” adds a separate entry of the source. Where two headings read alike, the source gives them in different places.

The subject of data set [1] is intraocular pressure (IOP). Description: Intraocular pressure (IOP) recovery model in rabbits after hypertonic saline (20% NaCl) infusion. It counts as in vivo, Albino rabbits. The following applies: for potency in lowering intraocular pressure compared with timolol: FIGS. 1-5; for potency in lowering intraocular pressure compared with pilocarpine and timolol: in vivo. The procedure:
Albino rabbits of either sex, weighing 2.25-2.5 kg were used for this intraocular pressure (IOP) recovery model experiment. Hypertonic saline (20% NaCl) was infused into the ear vein at a rate of 1 ml/min. for 10 minutes. The IOP was determined with Mackay-Marg electronic applanation tonometer (Berkeley Bio-Engineering, San Leandro, Calif.) at 0, 5, 10, 15, 20, 40, 60, 80, and every 30 minutes thereafter. The IOP decreased abruptly right after the infusion of hypertonic saline and recovered to normal in approximately 80-110 minutes. Identical experiments were repeated with the same group of animals one week later, wherein addition to the hypertonic saline infusion, haloperidol was instilled into the eyes in the form of 50 μl of an aqueous solution of 0.125 wt % haloperidol.
The procedure performed in Example 1 was carried out in the same manner, except that an aqueous solution of 0.25 wt % haloperidol was employed.
The procedure performed in Example 1 was carried out in the same manner, except that an aqueous solution of 0.25 wt % moperone was used.
The procedure performed in Example 1 was carried out in the same manner, except that an aqueous solution of 0.25 wt % trifluperidol was used.
The procedure performed in Example 1 was carried out in the same manner, except that an aqueous solution of 0.25 wt % L-timolol was used.
The procedure performed in Example 1 was carried out in the same manner, except that an aqueous solution of 0.25 wt % clofluperol was used.
The procedure performed in Example 1 was carried out in the same manner, except that an aqueous solution of 0.25 wt % floropipamide was used.
The procedure performed in Example 1 was carried out in the same manner, except that an aqueous solution of 0.25 wt % lenperone was used.
The procedure performed in Example 1 was carried out in the same manner with the following exceptions: (a) an Alcon electronic applanation tonometer (Alcon Laboratories, Inc., Ft. Worth, Tex.) was used to determine IOP; and (b) an aqueous solution of 0.25 wt % trifluoperazine was used.
The procedure performed in Example 10 was carried out in the same manner, except that an aqueous solution of 0.25 wt % chlorpromazine was used.
The procedure performed in Example 10 was carried out in the same manner, except that an aqueous solution of 0.5 wt % domperidone was used.

Data set [2] deals with aqueous humor formation and intraocular pressure. Description: Studies of ability to reduce aqueous humor formation and intraocular pressure in rabbits and cats. To be noted: rabbit, in vivo. From the text: The dopamine antagonists of the present invention have been studied with respect to their ability to reduce aqueous humor formation and intraocular pressure in rabbits and cats. The studies indicate that the compounds are effective in reducing aqueous humor formation and intraocular pressure subsequent to topical and intracameral application.

The next data set concerns intraocular pressure. To be noted: cited from earlier work.
Data set [3] can be described thus: Systemic absorption after topical instillation to the eye. It counts as in vivo. To be noted: assuming not more than 10% of topically instilled drug absorbed systemically.
Data set [4] has as its system aqueous humor (AH) dynamics. Description: Cat eye model, aqueous humor (AH) dynamics (rates of AH formation and outflow, blue dextran). Format: in vivo, cats. The following applies: 50 μl of 0.5% eye drops. On the procedure: The cat eye model was used for the study of haloperidol actions in aqueous humor (AH) dynamics. Briefly, cats of either sex weighing 2.5-4.0 kg were anesthetized with 30 mg/kg of pentobarbital sodium. Systemic blood pressure was monitored through cannulation at the femoral artery and additional pentobarbital was injected via femoral vein. Three needles were put into each eye. The first one was placed in the anterior chamber for the monitoring of IOP. The second one was placed at the posterior chamber for the infusion of AH-like solution containing 0.01% of blue dextran (NaCl, 137; KCl, 4.7; CaCl2, 1.53; MgCl2, 0.67; Na2 HPO4, 0.11 and dextrose, 5.56 mM). The rate of the infusion was adjusted to 38 μl/min. The third one was placed in the anterior chamber to serve as an overflow outlet. The overflown solution passed through a microspectrophotometric cell (ISCO, UA-5, Lincoln, Nebr.) for the detection of changes of blue dextran concentration and through a drop counter (ISCO, Model 328) for the recording of overflow rate.
Haloperidol (50 μl of 0.5% eye drops) was instilled to the eyes when the blue dextran tracings were stabilized (in about 2 hrs. after the initiation of the infusion). The rates of AH formation (rf) and outflow (ro) were calculated as follows: […]

For data set [5] the following is noted: background; cited from earlier work.
The conditions of data set [6]: background; cited from earlier work. The source holds these as a separate data set.
The mark [7] stands for this setting: Oryctolagus cuniculus, topical, read-out: Difference in Max Reduction of IOP.
[8] abbreviates: rabbit, 0.25% drug, Alcon electronic applanation tonometer.
Setting [9] is: rabbit, 0.25 wt % aqueous solution, Alcon tonometer.
The mark [10] stands for this setting: rabbit, 0.125% drug, Mackay-Marg tonometer, 50 μl eye instillation.
[11] abbreviates: rabbit, 0.25 wt % aqueous solution.
Setting [12] is: Oryctolagus cuniculus, topical, rabbit, 0.25% drug, Mackay-Marg tonometer, 100% control IOP 20.2 ± 1.3 mm Hg, 20% saline alone 65 ± 1, read-out: Difference in Max Reduction of IOP.
Setting [13] is: rabbit, 0.25% drug, Mackay-Marg tonometer, 50 μl eye instillation.
The mark [14] stands for this setting: rabbit, 0.25 wt % aqueous solution, Mackay-Marg tonometer.

`CN(C)CCCN1c2ccccc2Sc2ccc(Cl)cc21` [Chlorpromazine]: in data set [1] (setting [7]), the response vs control in vivo at 0.25 % came out at 52 ± 3%. In addition, the “Time Delay for IOP Recovery Relative to Control” value in data set [1] (setting [8]) is 120 min. Also, in data set [1] (setting [9]), the “shift of the IOP recovery curve relative to the control curve” value is recorded as “indicates the ocular hypotensive action”.

For the compound `O=C(CCCN1CCC(O)(c2ccc(Cl)c(C(F)(F)F)c2)CC1)c1ccc(F)cc1` [Clofluperol], the “potency in lowering intraocular pressure compared with timolol” value in data set [1] is listed as “at least equipotent to timolol”. For the same compound, the response vs control in vivo at 0.125 % in data set [1] (setting [7]) turned out to be 59 ± 2%. In data set [1] (setting [10]), the “Time Delay for IOP Recovery Relative to Control” value is given as 60 min. Besides, the “IOP recovery compared with L-timolol” value in data set [1] (setting [11]) is on record as “generally equivalent to that of L-timolol”. Moreover, the “reduction of aqueous humor formation and intraocular pressure” value (“reduction” below) in data set [2] is reported as “reduce significantly”.

On to `CC(C)(C)NC[C@@H](O)COc1nsnc1N1CCOCC1` [D-timolol], for which, in the data set on intraocular pressure (U.S. Pat. No. 4,521,414), the “intraocular pressure reducing response compared with S isomer” value is given as “substantially equivalent to that of the S isomer”.

With `O=c1[nH]c2ccccc2n1CCCN1CCC(n2c(=O)[nH]c3cc(Cl)ccc32)CC1` [Domperidone], in data set [1] (setting [7]), the response vs control in vivo at 0.5 % worked out at 56 ± 4%. Further, in data set [1] (rabbit, 0.5% drug, Alcon electronic applanation tonometer), the “Time Delay for IOP Recovery Relative to Control” value turned out to be 210 min. Moreover, in data set [1] (rabbit, 0.5 wt % aqueous solution, Alcon tonometer), the “shift of the IOP recovery curve relative to the control curve” value is “indicates the ocular hypotensive action”.

For `NC(=O)C1(N2CCCCC2)CCN(CCCC(=O)c2ccc(F)cc2)CC1` [Floropipamide], the “potency in lowering intraocular pressure compared with timolol” value in data set [1] is given as “at least equipotent to timolol”. Besides, the response vs control in vivo at 0.25 % in data set [1] (setting [12]) amounted to 60 ± 3%. Further, in data set [1] (setting [13]), the “Time Delay for IOP Recovery Relative to Control” value is reported as 60 min. In data set [1] (setting [11]), the “IOP recovery compared with L-timolol” value is “generally equivalent to that of L-timolol”. In data set [2], the “reduction” value is “reduce significantly”.

Consider `O=C(CCCN1CCC(O)(c2ccc(Cl)cc2)CC1)c1ccc(F)cc1` [Haloperidol, 4-[4-(p-chlorophenyl)-4-hydroxypiperidino]-4'-fluorobutyrophenone], for which the “potency in lowering intraocular pressure compared with timolol” value in data set [1] is reported as “more potency than timolol”. Moreover, the response vs control in vivo at 0.125 % in data set [1] (setting [7]) was determined as 45 ± 2%. The response vs control in vivo at 0.25 % in data set [1] (setting [7]) was found to be 46 ± 2%. The “Time Delay for IOP Recovery Relative to Control” value amounted to 180 min in data set [1] (setting [10]) and 270 min in data set [1] (setting [13]). Besides, the “shift of the IOP recovery curve relative to the control curve” value in data set [1] (rabbit, 0.125 wt % aqueous solution) is “indicates the ocular hypotensive action”; in data set [1] (setting [14]) it was “indicates the ocular hypotensive action”. Besides, in data set [1] (rabbit), the “potency in lowering intraocular pressure compared with pilocarpine and timolol” value is “more potent than pilocarpine and timolol”. For the same compound, the “anti-psychotic dosage level potentially absorbed as a result of glaucoma therapy” value in data set [3] was 0.2% to 0.65. Also, in data set [2], the “reduction” value is “reduce significantly”. Moreover, in data set [4] (following the initial outflow increase), the AH formation result was “decrease in aqueous humor formation; also recorded: decrease in AH formation”. In data set [4] (initial effect), the AH outflow entry is listed as “initial increase in aqueous humor outflow; also recorded: initially caused an increase in AH outflow”.

Consider `O=C(CCCN1CCC(C(=O)c2ccc(F)cc2)CC1)c1ccc(F)cc1` [Lenperone], for which the “potency in lowering intraocular pressure compared with timolol” value in data set [1] is reported as “at least equipotent to timolol”. Further, the response vs control in vivo at 0.25 % in data set [1] (setting [12]) amounted to 61 ± 2%. Besides, in data set [1] (setting [13]), the “Time Delay for IOP Recovery Relative to Control” value is recorded as 60 min. In addition, the “IOP recovery compared with L-timolol” value in data set [1] (setting [11]) is recorded as “generally equivalent to that of L-timolol”. The “reduction” value in data set [2] is “reduce significantly”.

As for `Cc1ccc(C2(O)CCN(CCCC(=O)c3ccc(F)cc3)CC2)cc1` [Moperone], the “potency in lowering intraocular pressure compared with timolol” value in data set [1] is “more potency than timolol”. In addition, in data set [1] (setting [12]), the response vs control in vivo at 0.25 % worked out at 55 ± 1%. The “Time Delay for IOP Recovery Relative to Control” value in data set [1] (setting [13]) amounted to 180 min. In addition, the “shift of the IOP recovery curve relative to the control curve” value in data set [1] (setting [14]) is given as “indicates the ocular hypotensive action”. The “potency in lowering intraocular pressure compared with pilocarpine and timolol” value in data set [1] (rabbit) was “more potent than pilocarpine and timolol”. The “reduction” value in data set [2] is “reduce significantly”.

Consider `CC(C)(C)NC[C@H](O)COc1nsnc1N1CCOCC1` [Timolol, 1-tert-butyl-amino-3-[(4-morpholino-1,2,5-thiadiazol-3-yl)oxy]-2-propanol], for which the response vs control in vivo at 0.25 % in data set [1] (setting [12]) is 62 ± 4%. For the same compound, the “Time Delay for IOP Recovery Relative to Control” value in data set [1] (setting [13]) is listed as 60 min. For the same compound, in data set [5], the local anesthetic action result is “lack of local anesthetic action” and the tolerance result is “minimal tolerance”. Further, the “systemic absorption after topical administration to the eye” value in data set [6] is “a small portion is absorbed into the systemic circulation”.

On to `CN1CCN(CCCN2c3ccccc3Sc3ccc(C(F)(F)F)cc32)CC1` [Trifluoperazine], for which, in data set [1] (Oryctolagus cuniculus, topical, rabbit, 0.25% drug, Alcon tonometer, 100% control IOP 20.2 ± 1.3 mm Hg, 20% saline alone 65 ± 1, read-out: Difference in Max Reduction of IOP), the response vs control in vivo at 0.25 % is 49 ± 4%. The “Time Delay for IOP Recovery Relative to Control” value in data set [1] (setting [8]) came out at 150 min. In data set [1] (setting [9]), the “shift of the IOP recovery curve relative to the control curve” value is given as “indicates the ocular hypotensive action”.

For `CC[C@@H]1C(=O)OC[C@@H]1Cc1cncn1C` [pilocarpine], the “mechanism: effect on aqueous humor outflow and formation” value in the data set with intraocular pressure (comparison with haloperidol) is recorded as “increases aqueous humor outflow without affecting aqueous humor formation”.
